Results from paper PMC13197777, “Distinct 2-phenylimidazo[1,2-a]pyridine derivatives that inhibit breast cancer cell proliferation identified as AHR ligands” (iScience, 2026).
Converted amounts (≈) assume the structure as drawn. Read-outs that look alike come from different tables or passages of the source.

What was measured:
PDxO#28 = test: Organoid viability, CellTiter-Glo 3D; assay type: cell-based, human; settings: PDxO#28 in 3D Matrigel, 7 days, increasing doses; same results in PDO#268 and PDO#480
From the text: Organoids were generated from patients’ samples and from patient-derived xenograft (PDX) tumors, as previously described.[25] PDX were derived from BCRO#28, an ER^+ breast cancer sample collected from a treatment naive patient. PDO#268 was derived from BCRO#268, an ER^+ breast cancer sample collected from treatment naive patient. PDO#480 was derived from BCRO#480, an ER^+ breast cancer sample collected from a patient subjected to chemotherapy in neo-adjuvant setting. Briefly, tumors freshly explanted from mice were mechanically shredded, digested with collagenase (Merck) and filtered through a 100 μm strainer. Digested material (isolated cells and small cell clusters) was centrifuged and embedded in 3D-matrix drops (reduced growth factor Basement Membrane Extract, BME, R&D systems), then overlaid with breast cancer organoid medium.[25] For 3D survival curves under treatment, organoids were embedded in BME drops and, after 24 - 48 h, drugs were added. Fresh drug-containing medium was replaced on day 4. On day 7 of treatment, CellTiter-Glo 3D Cell Viability Assay (Promega) was added and luminescent signal from viable organoids was recorded on Infinite M1000 Pro instrument (Tecan).

MCF-7 luc Y537S = test: Clonogenic assay (clonal expansion), MCF-7 cells with Y537S ER mutation; assay type: cell-based; settings: Homo sapiens, MCF7, 336 h
Method: (§1) Cells were seeded at a density of 1–2×10^3 cells/well in a 6-well plate and treated with increasing concentrations of the X compounds for 14–21 days. Medium and compounds were renewed every 7 days. The experiments were terminated by fixing the cells with methanol and the colonies formed were visualized after staining with 0.5% crystal violet (w/v) in 20% methanol (v/v). Plates were photographed and the area covered by the colonies was calculated using the ColonyArea Plugin for Fiji (RRID:SCR_003070).[20]

MCF-7 luc D538G = test: Clonogenic assay (clonal expansion), MCF-7 cells with D538G ER mutation; assay type: cell-based; settings: Homo sapiens, MCF7, 336 h
Method: as §1

ERα full-length = biological target: T1, ERα full-length (Homo sapiens, UniProt P03372); test: PolarScreen ERα Competitor Assay (fluorescence polarization); assay type: binding
T1 construct: 34 nM ERα full-length and 1.4 nM Fluormone EL Red were incubated; purchased ThermoFisher A15884
T1 sequence (P03372 1-595): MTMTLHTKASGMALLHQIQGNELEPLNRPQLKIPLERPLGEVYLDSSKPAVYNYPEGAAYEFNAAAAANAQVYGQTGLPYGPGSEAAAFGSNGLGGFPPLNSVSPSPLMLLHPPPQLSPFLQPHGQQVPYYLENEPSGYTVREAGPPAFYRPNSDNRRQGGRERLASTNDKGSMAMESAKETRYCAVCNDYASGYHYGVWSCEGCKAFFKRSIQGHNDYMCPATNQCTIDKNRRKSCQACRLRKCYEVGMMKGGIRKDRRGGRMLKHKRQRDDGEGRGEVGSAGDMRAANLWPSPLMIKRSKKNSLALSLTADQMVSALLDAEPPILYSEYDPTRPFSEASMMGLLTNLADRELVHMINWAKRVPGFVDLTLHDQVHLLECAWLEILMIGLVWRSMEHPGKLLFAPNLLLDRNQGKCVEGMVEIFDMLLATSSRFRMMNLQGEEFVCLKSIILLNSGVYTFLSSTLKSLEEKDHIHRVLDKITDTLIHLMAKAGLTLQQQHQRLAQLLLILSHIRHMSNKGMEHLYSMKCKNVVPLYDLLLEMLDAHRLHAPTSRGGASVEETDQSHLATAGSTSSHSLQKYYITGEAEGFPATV
Method: The PolarScreen Estrogen Receptor-Alpha Competitor Assay, Red (ThermoFisher, A15884) was used to determine if the X compounds bind to ERα. The assay was performed according to the manufacturer’s protocol.

[1] = system: MCF-7 luc D538G and MCF-7 luc Y537S; test: Clonogenic assay, cells expressing the two mutant ERs (range over both); assay type: cell-based; settings: Homo sapiens, MCF7, read-out: IC50 clonal expansion in cells expressing the two mutant ERs
Method: as §1

MCF-7 cells = test: Clonogenic assay in MCF-7 cells with AHR antagonist CH223191; assay type: cell-based, human; settings: MCF-7, 10 nM compound, 1 μM CH223191, 14 days
Method: as §1

MCF-7 luc = test: Clonogenic assay (clonal expansion), MCF-7 cells expressing wild-type ER; assay type: cell-based; settings: Homo sapiens, MCF7, 336 h
Method: as §1

CTC-ITB-01 cells = test: cells; assay type: cell-based; settings: Homo sapiens, read-out: LC50
Method: LC50 values were measured using the CyQUANT NF Cell Proliferation Assay Kit (Thermo Fisher). CTC-ITB-01 cells were plated at a density of 2x10^3 cells/well in 96-well plates and treated the following day with serial dilutions of the test compounds. After incubation for the indicated time, cells were stained with CyQUANT dye according to the manufacturer’s protocol and incubated at 37°C for 30 min. Fluorescence was measured using a Tecan Infinite M Nano+ (excitation: 485 nm; emission: 530 nm). For the calculation of the LC50 the fluorescence was plotted against the Log10 of the inhibitor concentration in nM as x values and the LC50 values were calculated with 95% confidence intervals (n = 4).

[2] = system: ERα LBD or full-length ERα; test: Nuclear receptor activity profiling (NAPing), E2-induced ERα-coregulator interaction; assay type: biochemical; settings: E2 −8.5 logM, compound −5.5 logM, LBD or full-length ER
Method: Preparation of assay mixes with ERα recombinant ligand binding domain (LBD) and full-length ERα in MCF-7 extracts and measurement of coregulator recruitment on the NAPing platform (PML, Oss, The Netherlands) was performed as described previously.[68]^,[69] […] Unbound ERα and antibodies were removed by washing. Residual ERα binding to each coregulator motifs was recorded on tiff images and quantified using an R-based analysis software package (PML, Oss, The Netherlands).

[3] = set-up: method as in earlier work; settings: IUPAC Digitized pKa Dataset ref 30; cited from earlier work
[4] = Thermodynamic solubility, shake-flask method; assay type: physicochemical; settings: HEPES buffer 0.1 M pH 7.4, 21 °C
Method: Thermodynamic solubility was determined using the classical shake-flask method. The solid compound (4 mg) was suspended in 1 mL HEPES buffer (0.1 M, pH 7.4) and constantly stirred at 21 °C for 24 h. […] The injection volume for all analyses was 50 μL and the flow rate was kept at 1 mL/min during the analysis. A mobile phase gradient method was applied as a method with 5% solvent B to 99% solvent B in 5 min, followed by 3 min of elution at 99% solvent B.
Calibration curve was generated from a serial dilution of the respective analyte in DMSO at 2.5, 1.25, 0.625, 0.313, 0.156, 0.078, 0.039 mM starting from a 10 mM DMSO stock solution. Subsequently, 2 μL of each dilution was added to 198 μL of a buffer (HEPES, 0.1 M, pH 7.4)/acetonitrile mixture in a 3:2 ratio yielding final dilutions of 25, 12.5, 6.25, 3.125, 1.562, 0.781, 0.391 μM. These were then subjected to HPLC analysis as described above.
Using the results from the linear regression of the internal calibration measurement points (Figure S5) and the mean AUC values from the saturated aqueous solutions, the concentration C of the analytes in the saturated aqueous solution, expressed in μM, were calculated using Equation 2:(Equation 1) AUC=Slope·C+YIntercept (Equation 2) C=AUC−YIntercept/Slope

[5] = system: AHR target genes CYP1A1, CYP1B1, ALDH3A1; settings: human, 16 h, 1 µM
ERα in MCF-7 cells = test: Immunoblot of ERα in MCF-7 cells; assay type: cell-based, human; settings: MCF-7, 48 h, increasing concentrations up to 1 μM
Method: To determine the relative expression of proteins by Western blotting, cells were first washed with ice-cold phosphate buffered saline (PBS). Subsequently, they were lysed in ice-cold NP40 lysis buffer (1%NP-40, 50 mM Tris-HCl, pH 8.0, 150 mM NaCl, 5 mM Ethylenediaminetetraacetic acid [EDTA], 1 mM PMSF) on ice. DNA was degraded by sonification (five pulses at 50 amplitudes). Protein concentration was determined, and equal amounts of protein were separated on a 9% SDS-PAGE gel. The proteins were transferred onto nitrocellulose membrane by a standard Western blotting protocol and the membranes were incubated with the following antibodies: ERα (Santa Cruz Biotechnology, sc-8002, RRID: AB_627558) and PCNA (Santa Cruz Biotechnology, sc-56, RRID: AB_628110), followed by incubation with HRP labeled Goat anti-mouse Immunoglobulins (DAKO, P0447, RRID: AB_2617137).

[6] = Compound stability in aqueous environment; assay type: physicochemical; settings: 12.5 μM, HEPES pH 7.4/acetonitrile 3:2, 1% DMSO, 21 °C, 5 days
Method: The stability of the compounds was evaluated at a concentration of 12.5 μM in a 3:2 mixture of buffer (HEPES, 0.1 M, pH 7.4) and acetonitrile, with 1% DMSO. Acetonitrile was added because the concentration of 12.5 μM exceeded the thermodynamic solubility of the compounds in the buffer. This addition thereby prevented the formation of precipitates and a gradual decrease in compound concentration during the measurement. The resulting solution was stirred at 21 °C in a sealed vial (crimp neck vials, 5 mL, clear (Cat. No. 548-0611A) in combination with natural rubber septa (548-0565A) and aluminum crimp caps (548-3278A), VWR International) for 5 days. […] The AUC measured was subsequently plotted as a function of the incubation time (Figure S3). No signs of decomposition could be observed over the given time.

[7] = HEPES buffer, 21 °C, pH 7.4, aqueous buffer, thermodynamic from solid

C[C@]12CC[C@@H]3c4ccc(O)cc4C[C@@H](CCCCCCCCC[S+]([O-])CCCC(F)(F)C(F)(F)F)[C@H]3[C@@H]1CC[C@@H]2O (some centres unmarked) [Fulvestrant, reference compound]
organoid viability (survival) (PDxO#28): modest | IC50 (MCF-7 luc Y537S; read-out: IC50 clonal expansion, Figure 1B, MCF-7 luc Y537S, absence of E2, 14 days): 6.6 nM | IC50 (MCF-7 luc Y537S; read-out: IC50 clonal expansion, Figure 1C, MCF-7 luc Y537S + 10 nM E2, 14 days): 150 nM | IC50 (MCF-7 luc Y537S; read-out: IC50 clonal expansion, Figure 1D, MCF-7 luc Y537S, absence of E2, 14 days): 7.47 nM | IC50 (MCF-7 luc Y537S; read-out: IC50 clonal expansion, Figure 1E, MCF-7 luc Y537S + 10 nM E2, 14 days): 147 nM | IC50 (MCF-7 luc D538G; read-out: IC50 clonal expansion, Figure 1B, MCF-7 luc D538G, absence of E2, 14 days): 9.57 nM | IC50 (MCF-7 luc D538G; read-out: IC50 clonal expansion, Figure 1C, MCF-7 luc D538G + 10 nM E2, 14 days): 1910 nM | IC50 (MCF-7 luc D538G; read-out: IC50 clonal expansion, Figure 1D, MCF-7 luc D538G, absence of E2, 14 days): 12.2 nM | IC50 (MCF-7 luc D538G; read-out: IC50 clonal expansion, Figure 1E, MCF-7 luc D538G + 10 nM E2, 14 days): 1910 nM | displacement of the Fluormone tracer from ERα (ERα full-length): efficiently displaced the Fluormone tracer | IC50 [1]: 6.6 to 9.57 nM | inhibition of colony expansion in the presence of AHR antagonist CH223191 (MCF-7 cells): inhibited colony growth in the presence of CH223191 | IC50 (MCF-7 luc; Figure 1B, MCF-7 luc, absence of E2, 14 days): 0.14 nM | IC50 (MCF-7 luc; Figure 1C, MCF-7 luc + 10 nM E2, 14 days): 69.2 nM | IC50 (MCF-7 luc; Figure 1D, MCF-7 luc, absence of E2, 14 days): 0.12 nM | IC50 (MCF-7 luc; Figure 1E, MCF-7 luc + 10 nM E2, 14 days): 78.1 nM | CC50 (CTC-ITB-01 cells; 48 h): 8800 nM | CC50 (CTC-ITB-01 cells; 120 h): 6300 nM | disruption of coactivator peptide binding to E2-liganded ERα [2]: clearly disrupted binding of the coactivator peptides

c1ccn2ccnc2c1 [Imidazo(1,2-a)pyridine]
experimental pKa [3]: 6.79

FC(F)(F)c1cc(Cl)c2nc(-c3ccccc3)cn2c1 [X15696]
solubility thermodynamic at 24 h [4]: 5 µM (≈ 1.48 µg/mL) | solubility thermodynamic at 24 h [4, 7]: 5.11 µM (≈ 1.52 µg/mL) | expression of AHR target genes (RT-PCR) [5]: enhanced the transcriptional activity of the AHR target genes in both MCF-7 and T47D cells | ERα destabilization (immunoblot) (ERα in MCF-7 cells): most proficient in destabilizing ERα | inhibition of colony expansion in the presence of AHR antagonist CH223191 (MCF-7 cells): clearly abrogated by the AHR antagonist CH223191 | stability in aqueous environment [6]: no obvious decomposition detected

Fc1ccccc1-c1cn2cc(C(F)(F)F)cc(Cl)c2n1 [X19720]
solubility thermodynamic at 24 h [4]: 1.4 µM (≈ 0.441 µg/mL) | solubility thermodynamic at 24 h [4, 7]: 1.35 µM (≈ 0.425 µg/mL) | expression of AHR target genes (RT-PCR) [5]: enhanced the transcriptional activity of the AHR target genes in both MCF-7 and T47D cells | ERα destabilization (immunoblot) (ERα in MCF-7 cells): most proficient in destabilizing ERα | inhibition of colony expansion in the presence of AHR antagonist CH223191 (MCF-7 cells): clearly abrogated by the AHR antagonist CH223191 | stability in aqueous environment [6]: no obvious decomposition detected
